Measurements: patent US8936793B2, “Synthetic archaeal glycolipid adjuvants” (National Research Council of Canada, priority 2006, dated 2015)

Columns and labels:
[1] = test system: antigen-specific CD8+ T cell; experiment: Antigen-specific CD8+ T cell activity in blood by tetramer assay; type: in vivo, C57BL/6J mice; details: glyco-archaeol/DPPG/chol (25/55/20, mol %); data not shown
Method: Mice vaccinated with synthetic archaeosomes containing an appropriate antigen were protected from infection (FIG. 13). […] The lower CD8^+ T cell response observed for this latter archaeosome previously appears to be in part due to the shorter period from first injection to assay in FIG. 7C. In this example (FIG. 13), the antigen-specific CD8^+ T cell activity was measured in blood by tetramer assay and found to be about 30% as high in the maltotriose-A group compared to the gentiotriose-A group (data not shown).

[2] = test system: Listeria monocytogenes (LM)-OVA construct; experiment: Protection against LM-OVA challenge after vaccination, splenic CFU; type: in vivo; details: glyco-archaeol/DPPG/chol (25/55/20, mol %), FIG. 13
Method: FIG. 13 illustrates protection against LM-OVA challenge after vaccination with OVA-adjuvant combinations. C57BL/6J mice were immunized on day 0 and 21 with 15 ug OVA entrapped in various synthetic archaeosomes composed of the respective synthetic glyco-archaeol/DPPG/chol (25/55/20, mol %). At 8 weeks, mice were challenged with 10^4 intravenous dose of Listeria monocytogenes (LM)-OVA construct. Mice were euthanized 3 days later. Mean±SEM of splenic colony forming units (CFU) is shown for each group.

[3] = test system: antigen specific EG.7 targets; experiment: CTL activity in splenocytes of immunized mice, Cr51-assay; type: in vivo, C57BL/6 mice
Method: (§1) To determine adjuvant activity, various synthetic archaeosomes with OVA entrapped (OVA-archaeosomes) were used to immunize female C57BL/6 mice on days 0 and 21 (6-8 weeks old on first injection). Injections were subcutaneous at the tail base with 0.1 ml PBS containing 15 μg OVA entrapped in 0.2-0.63 mg lipids. Blood samples were collected from the tail vein for anti-OVA IgG/IgM antibody titration done by ELISA (13). In some cases faecal extracts were assayed for IgA (and IgG) to assess mucosal responses following systemic immunizations. Fresh faeces (about 30 mg dry weight) were collected from 4 mice/group, and extracted by adding 0.5 ml of phosphate buffered saline (pH 7.0) containing 10% fetal calf serum and 0.1% sodium azide. Homogenized samples were centrifuged and Elisa measured anti OVA antibody in supernatants. Spleens were collected to determine CTL activity using the Cr^51-assay with specific and non-specific targets EG.7 and EL-4, respectively (14). In Elispot assays antigen-specific CD8^+ T cell activity was measured in splenic cells from immunized mice by determining the number of SIINFEKL stimulated IFN-γ-secreting cells per 5×10^5 splenic cells (15).

[4] = test system: Macrophages J774A.1; experiment: Up-regulation of co-stimulatory molecule CD80 on APCs, flow cytometry; type: cell-based; details: 25 μg liposomes or archaeosomes 48 h; LPS 10 μg 24 h; anti-CD80-PE
Method: Macrophages J774A.1 were incubated for 48 h with 25 μg of archaeosomes prior to staining and analysis by flow cytometry (Table 13). […] Immuno-activity was clearly ascribed to the synthetic glyco-archaeal lipid.

[5] = test system: SIINFEKL stimulated IFN-γ-secreting cells; experiment: Elispot assay of antigen-specific CD8+ T cell activity in splenic cells of immunized mice; type: in vivo, C57BL/6 mice; details: glyco-archaeol/DPPG/cholesterol (25/55/20, mol %); 6 weeks
Method: as §1, with “SIINFEKL” left out

[6] = Archaeosome formation upon hydration and stability on storage (microscopic examination, size); type: physicochemical; details: lipid hydrated alone
From the text: Presence of a relationship was explored between adjuvant activity and the mol % of the active ingredient, β-D-Glc-(1,6)-β-D-Glc-archaeol, mixed with DPPG/cholesterol. Cholesterol was maintained constant at 20 mol % with DPPG added as required to balance increasing amounts of β-D-Glc-(1,6)-β-D-Glc-archaeol. […] Hydration became more difficult at 60 mol % D-Glc-(1,6)-β-D-Glc-archaeol, and archaeosomes with 60 mol % of the synthetic glyco-archaeol increased in size during the removal of unentrapped antigen indicating instability (Table 11). […] Immunized mice developed CD8^+ T cell immune responses that were best at 15-45 mol % Glc2-archaeol content (FIG. 5).
The need for cholesterol, and the optimal mol % cholesterol needed to achieve stability of archaeosomes containing 35 mol % D-Glc-(1,6)-β-D-Glc-archaeol was explored. Cholesterol was varied in each preparation from 0, 10, 20, 30 and 45 mol %. DPPG made up the balance of each preparation. Lipids were mixed in solvent and archaeosomes were loaded with the antigen OVA as described in methods. Archaeosomes formed in all cases upon hydrating at 35° C. However, when stored at refrigeration temperatures (4-6° C.) these synthetic archaeosomes with no cholesterol were unstable, converting to amorphous lipid debris and needle shaped crystals. This instability was avoided by inclusion of 10 mol % or more cholesterol. […] The optimal cholesterol was therefore in the range of >10 to <45 mol %.
Archaeosomes/liposomes were prepared by hydrating 20-30 mg lipids at 40° C. in 2 ml of PBS buffer (10 mM sodium phosphate, 160 mM NaCl, pH 7.1) or water with (Ag-loaded) or without (Ag-free) the test antigen OVA dissolved at 10 mg/ml. In some cases, cholesterol (Sigma), DPPS, DPPE, or DPPG (Avanti Polar Lipids) polar lipids were mixed in chloroform/methanol with the synthetic glyco-archaeols. […] Quantification of antigen loading was done by SDS polyacrylamide gel electrophoresis as described and based on salt corrected dry weights (27). Average diameters were determined by particle size analysis using a 5 mW He/Ne laser (Nicomp 370).

[7] = test system: anti-OVA antibody; experiment: Anti-OVA IgG/IgM antibody titration in blood of immunized mice by ELISA; type: in vivo, C57BL/6 mice
Method: as §1

[8] = incorporation of 36 mol % into archaeosomes; Sprott et al (23); cited from earlier work

CC(C)CCC[C@@H](C)CCC[C@@H](C)CCC[C@@H](C)CCOC[C@H](CO[C@@H]1O[C@H](CO)[C@@H](O[C@H]2O[C@H](CO)[C@@H](O[C@H]3O[C@H](CO)[C@@H](O)[C@H](O)[C@H]3O)[C@H](O)[C@H]2O)[C@H](O)[C@H]1O)OCC[C@H](C)CCC[C@H](C)CCC[C@H](C)CCCC(C)C [maltotriose-A]
antigen-specific CD8+ T cell activity in blood, % as high as the gentiotriose-A group [1]: about 30%
protection from LM-OVA infection [2]: striking protection
CTL adjuvant activity, FIG. 3 ([3]; 15 μg OVA s.c. 0 and 3 weeks, spleens 7 weeks after first immunization): best adjuvant activity

Lipopolysaccharide
Mean fluorescence Intensity CD80 [4]: 33.2

CC(C)CCC[C@@H](C)CCC[C@@H](C)CCC[C@@H](C)CCOC[C@H](CO[C@@H]1O[C@H](CO[C@@H]2O[C@H](CO)[C@@H](O)[C@H](O)[C@H]2O)[C@@H](O)[C@H](O)[C@H]1O)OCC[C@H](C)CCC[C@H](C)CCC[C@H](C)CCCC(C)C [Glc2-archaeol]
CTL response, FIG. 4A ([3]; 15 μg OVA s.c. 0 and 3 weeks, 6 weeks from first injection): dramatic increase
mol % Glc2-archaeol content at which CD8+ T cell immune responses were best ([3]; cholesterol 20 mol %, DPPG remainder, FIG. 5): 15-45 mol %
CD8+ T cell adjuvant activity, Elispot, FIG. 7C [5]: best
archaeosome formation upon hydration [6]: did not form readily
anti-OVA antibody response, FIG. 4B ([7]; 15 μg OVA s.c. 0 and 3 weeks, 6 and 11 weeks): dramatic increase

CC(C)CCC[C@@H](C)CCC[C@@H](C)CCC[C@@H](C)CCOC[C@H](CO[C@@H]1O[C@H](CO[C@@H]2O[C@H](CO[C@@H]3O[C@H](CO)[C@@H](O)[C@H](O)[C@H]3O)[C@@H](O)[C@H](O)[C@H]2O)[C@@H](O)[C@H](O)[C@H]1O)OCC[C@H](C)CCC[C@H](C)CCC[C@H](C)CCCC(C)C [gentiotriose-A]
protection from LM-OVA infection [2]: Best protection

CC(C)CCCC(C)CCCC(C)CCCC(C)CCOCC(CO[C@@H]1O[C@H](CO[C@@H]2O[C@H](CO)[C@@H](O)[C@H](O)[C@H]2O)[C@@H](O)[C@H](O)[C@H]1O)OCCC(C)CCCC(C)CCCC(C)CCCC(C)C (stereo partly drawn) [DGAs, β-D-Glc-(1,6)-β-D-Glc-archaeol]
adjuvant activity [8]: striking decline in adjuvant activity

CC(C)CCC[C@@H](C)CCC[C@@H](C)CCC[C@@H](C)CCOC[C@H](CO[C@@H]1O[C@H](CO[C@H]2O[C@H](CO)[C@@H](O)[C@H](O)[C@H]2O)[C@@H](O)[C@H](O)[C@H]1O)OCC[C@H](C)CCC[C@H](C)CCC[C@H](C)CCCC(C)C [isomaltose-A]
protection from LM-OVA infection [2]: less protective
CD8+ T cell adjuvant activity, Elispot, FIG. 7C [5]: lower CD8^+ T cell responses
antibody responses, FIG. 7D ([7]; glyco-archaeol/DPPG/cholesterol (25/55/20, mol %), 6 weeks): quite strong

CC(C)CCC[C@@H](C)CCC[C@@H](C)CCC[C@@H](C)CCOC[C@H](CO[C@H]1O[C@H](CO)[C@@H](O)[C@H](O)[C@@H]1O)OCC[C@H](C)CCC[C@H](C)CCC[C@H](C)CCCC(C)C [Man1-C]
archaeosome formation upon hydration [6]: did not form readily

CC(C)CCC[C@@H](C)CCC[C@@H](C)CCC[C@@H](C)CCOC[C@H](CO[C@H]1O[C@H](CO)[C@@H](O)[C@H](O)[C@@H]1O[C@H]1O[C@H](CO)[C@@H](O)[C@H](O)[C@@H]1O)OCC[C@H](C)CCC[C@H](C)CCC[C@H](C)CCCC(C)C [Man2-C]
archaeosome formation upon hydration [6]: did not form readily
